Like-named read-outs stand apart in the source and are kept apart here. One block for each compound: values may come before it.
How the values were obtained:
E. faecium = assay: MIC against E. faecium; assay type: cell-based; details: Table 8, E. faecium ATCC 33667
Experimental: (§1) MRSi compound 5 alone and in combination with mupirocin was tested recent clinical isolates of E. faecalis (n=28) and E. faecium (n=23). Both the acetate salt and mupirocinate salts of MRSi compound 5 maintained potent activity against vancomycin-susceptible and—resistant enterococci (Tables 8, 9, and 10).

E. faecalis = assay: MIC against E. faecalis; assay type: cell-based; details: for MIC: Table 8
Experimental: The MRS inhibitor 4 alone and in combination with mupirocin (mupirocin salt and 1:1 combination) were tested against a collection of Gram-positive pathogens.
as §1

S. aureus = assay: MIC against S. aureus strains and clinical isolates (broth microdilution); assay type: cell-based, Staphylococcus aureus
Experimental: were tested against a collection of clinical isolates of S. aureus including strains that were multi-resistant to mupirocin and to other agents such as gentamicin and oxacillin.
The acetate and mupirocin salts of the MRS inhibitor compound 5 were tested against a collection of both low and high-level mupirocin resistant clinical isolates of S. aureus (Table 6).
The bacterial strains were tested for susceptibility to mupirocin and MRSi compound 2 using the broth microdilution method in accordance with NCCLS guideline to determine their MICs.
Briefly, the MIC and checkerboard titration assays were performed with strains in microtiter trays with cation-supplemented Mueller-Hinton broth (Difco). Inocula were prepared by suspending growth from blood agar plates in sterile saline to a density equivalent to that of a 0.5 McFarland standard and were diluted […] to produce a final inoculum of 5×10^5 CFU/ml. The trays were incubated aerobically overnight. Standard quality control strains were included with each run. Fractional inhibitory concentrations (FICs) were calculated as the MIC of drug A or B in combination/MIC of drug A or B alone, and the FIC index was obtained by adding the two FICs. FIC indices were interpreted as synergistic if the values were ≦0.5, additive or indifferent if the values were >0.5 to 4, and antagonistic if the values were >4.0.

[1] = recent clinical isolates of E. faecalis, ALL (28)

MIC (E. faecium; Enterococcus faecium, ATCC33667, read-out: MIC): 1 µg/mL | MIC (E. faecalis; Enterococcus faecalis, ATCC 51299 / VRE, E. faecalis ATCC 51299 (VRE), read-out: MIC): 0.5 µg/mL | MIC (E. faecalis; Enterococcus faecalis, E. faecalis 1, read-out: MIC): 0.5 µg/mL | MIC (E. faecalis; Enterococcus faecalis, E. faecalis 7, read-out: MIC): 0.5 µg/mL
SMILES: CC1(C)S[C@@H]2[C@H](NC(=O)[C@H](N)c3ccccc3)C(=O)N2[C@H]1C(=O)O [Ampicillin, reference compound]

SMILES: C=C(F)c1sc(CNCCCNc2cc(=O)c3ccccc3[nH]2)c(C)c1Br [MRSi Cmpd 5 mupirocinate, N-(4-bromo-5-(1-fluorovinyl)-3-methylthiophen-2-ylmethyl)-N′(1H-quinolin-4-one)propane-1,3-diamine Mupirocinate]
MIC90 (E. faecalis; E. faecalis, Van-R(11)): 0.03 µg/mL | MIC90 (E. faecalis; E. faecalis, Van-S (16)): 0.03 µg/mL | MIC90 (E. faecalis; [1]): 0.03 µg/mL | Mode (MIC) (E. faecalis; [1]): 0.03 µg/mL

MIC (E. faecium): ≦0.004 μg/mL | MIC (E. faecalis; E. faecalis 1): ≦0.004 μg/mL | MIC (E. faecalis; E. faecalis 7): 0.015 µg/mL | MIC (E. faecalis; E. faecalis ATCC 51299 (VRE)): 0.015 µg/mL | MIC (S. aureus; S. aureus 10-420 (LL Mup. Rest.)): 0.12 µg/mL | MIC (S. aureus; S. aureus 14-354 (LL Mup. Rest.)): 0.25 µg/mL | MIC (S. aureus; S. aureus 25-670 (HL Mup. Rest.)): 0.12 µg/mL | MIC (S. aureus; S. aureus 31-1334 (LL Mup Rest.)): 0.12 µg/mL | MIC (S. aureus; S. aureus 36-1298 (LL Mup. Rest.)): 0.015 µg/mL | MIC (S. aureus; S. aureus 87-2797 (HL Mup. Rest.)): 0.12 µg/mL | MIC (S. aureus; S. aureus 87-2797 (Mup. Susc.)): 0.12 µg/mL | MIC (S. aureus; S. aureus 101-100 (Mup. Susc.)): 0.06 µg/mL | MIC (S. aureus; S. aureus ATCC 43300 (ORSA)): 0.25 µg/mL | MIC (S. aureus; S. aureus LZ1 (HL Mup rest.)): 0.06 µg/mL | MIC (S. aureus; S. aureus LZ6 (HL Mup rest.)): 0.12 µg/mL | MIC (S. aureus; S. aureus LZ8 (LL Mup. Rest.)): 0.06 µg/mL | MIC (S. aureus; S. aureus LZ9): 0.06 µg/mL | MIC (S. aureus; S. aureus LZ10): 0.12 µg/mL | MIC (S. aureus; S. aureus Miles Hall): 0.12 µg/mL | MIC (S. aureus; S. aureus NRS1 (VISA)): 0.12 µg/mL | MIC (S. aureus; S. aureus NRS107 (HL Mup rest.)): 0.03 µg/mL | MIC (S. aureus; S. aureus Oxford): 0.12 µg/mL | MIC90 (S. aureus; all S. aureus strains of Table 1): 0.25 µg/mL | MIC Range (S. aureus; all S. aureus strains of Table 1 (mupirocin-susceptible and -resistant)): 0.015 to 0.12 µg/mL
SMILES: O=c1cc(NCCCNC2CCNc3c(Br)cc(Br)cc32)[nH]c2ccccc12 (centres unmarked) [MRSi cmpd 1, 2-[3-(6,8-Dibromo-2,3,4,5-tetrahydroquinolin-4-ylamino)prop-1-ylamino]-1H-quinolin-4-one]
